From patent publication US9180164B2, “Compounds and methods of modulating angiogenesis” (THE CLEVELAND CLINIC FOUNDATION, priority 2011, dated 2015)
Like-named read-outs stand apart in the source and are kept apart here.

Experiments:
VEGFR-2 = molecular target: T1, VEGFR-2 (Mus musculus, UniProt P35918); test: VEGFR-2 phosphorylation time course in mouse lung endothelial cells; format: cell-based; conditions: 20 ng/ml VEGF
T1 construct: endogenous in cells; host or cells: primary mouse lung endothelial cells (WT and DiYF mice)
Procedure: Serum starved wild type and DiYF endothelial cells were also treated with 20 ng/ml VEGF for 0-60 mins. Cell lysates were analyzed by Western blot using anti-integrin β3 [pY^747], anti-integrin [pY^759], anti-p-VEGFR-2, anti-VEGFR-2, anti-p-ERK1/2, anti-ERK1/2, anti-p-Akt, anti-Akt, anti-p-P38MAPK and anti-MAPK antibody. The wild type and DiYF endothelial cells were lysed and equal proteins from total cell lysates were subjected SDS-PAGS and analyzed by western blot using anti-VEGFR-2 and anti-CD-31 antibody.

[1] = test system: mouse lung endothelial cells; conditions: WT EC, vitronectin
Procedure: Transwell tissue culture inserts were coated with various integrin ligands for 24 h at 4° C. Both WT and DiYF lung endothelial cells were trypsinized and 1×10^5 cells were added into each well. The lower chamber contained varying concentrations of VEGF-A165 (0-20 ng/ml). Cells were allowed to migrate for 12 h and fixed with 3.7% formaldehyde/PBS for 15 min and stained with 0.5% crystal violet. The non-migrated cells adhered to the top surface were removed and three random 10× fields were photographed using Leica inverted phase contrast microscope.

αvβ3 integrin [2] = molecular target: T2, αvβ3 integrin (Mus musculus, UniProt O54890+P43406); test: Fibrinogen binding assay (FACS); format: cell-based; conditions: WT EC; 20 ng/ml VEGF or 1 mM MnCl2
T2 construct: endogenous in cells; host or cells: primary mouse lung endothelial cells
T2 sequence (O54890 26-787): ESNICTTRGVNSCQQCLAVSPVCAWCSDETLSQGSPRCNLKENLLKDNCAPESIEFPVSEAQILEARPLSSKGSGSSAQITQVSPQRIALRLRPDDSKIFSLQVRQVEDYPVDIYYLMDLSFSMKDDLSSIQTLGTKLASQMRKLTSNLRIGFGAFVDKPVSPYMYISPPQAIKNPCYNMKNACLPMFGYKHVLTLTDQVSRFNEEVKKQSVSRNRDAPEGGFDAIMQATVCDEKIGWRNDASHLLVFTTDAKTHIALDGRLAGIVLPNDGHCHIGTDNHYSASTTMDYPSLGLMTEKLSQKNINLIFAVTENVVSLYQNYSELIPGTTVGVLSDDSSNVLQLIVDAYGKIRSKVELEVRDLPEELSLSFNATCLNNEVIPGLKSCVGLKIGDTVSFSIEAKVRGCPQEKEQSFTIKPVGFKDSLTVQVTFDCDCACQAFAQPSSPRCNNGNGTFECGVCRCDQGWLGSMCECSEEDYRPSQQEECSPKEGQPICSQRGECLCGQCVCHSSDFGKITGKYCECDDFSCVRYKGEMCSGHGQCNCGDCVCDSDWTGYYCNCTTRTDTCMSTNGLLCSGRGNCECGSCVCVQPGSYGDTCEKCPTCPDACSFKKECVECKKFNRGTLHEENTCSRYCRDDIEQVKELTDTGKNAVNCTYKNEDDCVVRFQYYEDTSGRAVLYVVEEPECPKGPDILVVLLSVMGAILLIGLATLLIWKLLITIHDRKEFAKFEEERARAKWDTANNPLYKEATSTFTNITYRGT
T2 sequence (P43406 31-885 limits assumed): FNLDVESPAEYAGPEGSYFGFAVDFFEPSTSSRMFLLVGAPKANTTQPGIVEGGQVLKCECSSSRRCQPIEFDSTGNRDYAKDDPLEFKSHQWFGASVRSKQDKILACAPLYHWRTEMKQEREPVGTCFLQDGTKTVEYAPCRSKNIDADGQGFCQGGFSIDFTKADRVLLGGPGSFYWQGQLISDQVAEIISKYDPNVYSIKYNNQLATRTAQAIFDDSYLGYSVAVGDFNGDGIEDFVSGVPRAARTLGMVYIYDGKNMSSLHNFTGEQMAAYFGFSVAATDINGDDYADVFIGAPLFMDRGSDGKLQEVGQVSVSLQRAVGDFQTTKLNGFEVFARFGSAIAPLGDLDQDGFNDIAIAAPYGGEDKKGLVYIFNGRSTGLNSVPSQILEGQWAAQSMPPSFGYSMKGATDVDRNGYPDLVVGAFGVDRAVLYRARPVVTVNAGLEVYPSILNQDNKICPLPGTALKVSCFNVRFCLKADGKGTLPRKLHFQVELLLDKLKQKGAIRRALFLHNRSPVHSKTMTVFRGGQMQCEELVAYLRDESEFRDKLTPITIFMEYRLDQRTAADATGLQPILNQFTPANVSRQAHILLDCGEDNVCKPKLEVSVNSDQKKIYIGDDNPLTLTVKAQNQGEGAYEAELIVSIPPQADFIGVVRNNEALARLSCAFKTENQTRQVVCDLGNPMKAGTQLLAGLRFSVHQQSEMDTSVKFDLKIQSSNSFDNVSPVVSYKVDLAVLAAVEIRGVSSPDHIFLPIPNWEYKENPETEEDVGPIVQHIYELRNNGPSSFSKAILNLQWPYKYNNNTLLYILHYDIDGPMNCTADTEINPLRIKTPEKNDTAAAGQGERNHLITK
T2 sequence (P43406 887-1044 limits assumed): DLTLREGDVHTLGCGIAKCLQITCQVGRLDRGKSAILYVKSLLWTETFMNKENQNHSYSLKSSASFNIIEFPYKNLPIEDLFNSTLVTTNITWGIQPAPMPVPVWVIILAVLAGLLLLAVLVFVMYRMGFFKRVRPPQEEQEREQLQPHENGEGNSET
Procedure: (§1) To assess fibrinogen binding, semiconfluent wild type and DiYF mouse lung endothelial cells were serum starved for 4 h and further induced with 20 ng/ml VEGF-165, 20 ng/ml b-FGF or 1 mm MnC12. Fluorescein isothiocyanate (FITC)-labeled fibrinogen was added at a final concentration of 200 nM for 45 min. […] Fluorescence-activated cell sorting (FACS) was performed using a FACS Calibur (Becton Dickinson, San Jose, Calif.) and data were analyzed using CellQuest software program.

αvβ3 integrin [3] = test: Fibrinogen binding assay (FACS); format: cell-based, mouse; conditions: DiYF EC; 20 ng/ml VEGF or 1 mM MnCl2
Procedure: as §1

αvβ3 integrin [4] = molecular target: T2, αvβ3 integrin; test: WOW-1 binding assay, mouse lung endothelial cells; format: cell-based; conditions: WT EC; 20 ng/ml VEGF or 1 mM MnCl2
Procedure: (§2) Wild type and DiYF mouse lung endothelial cells were serum starved for 4 h and further stimulated with 20 ng/ml VEGF-165, 20 ng/ml b-FGF or 1 mm MnC12 separately. WoW-1 Fab was added at a final concentration of […], followed by addition of Fluorescein isothiocyanate (FITC) conjugated goat anti-mouse IgG at 10 μg/ml. After 30 min cells were fixed with 3.7% formaldehyde/PBS for 15 min, washed twice with 1×PBS and FACS was performed using a FACS Calibur (Becton Dickinson, San Jose, Calif.) instrument and data were analyzed using CellQuest software program.

αvβ3 integrin [5] = test: WOW-1 binding assay, mouse lung endothelial cells; format: cell-based; conditions: DiYF EC; 20 ng/ml VEGF or 1 mM MnCl2
Procedure: as §2

T1 sequence (P35918 20-1345): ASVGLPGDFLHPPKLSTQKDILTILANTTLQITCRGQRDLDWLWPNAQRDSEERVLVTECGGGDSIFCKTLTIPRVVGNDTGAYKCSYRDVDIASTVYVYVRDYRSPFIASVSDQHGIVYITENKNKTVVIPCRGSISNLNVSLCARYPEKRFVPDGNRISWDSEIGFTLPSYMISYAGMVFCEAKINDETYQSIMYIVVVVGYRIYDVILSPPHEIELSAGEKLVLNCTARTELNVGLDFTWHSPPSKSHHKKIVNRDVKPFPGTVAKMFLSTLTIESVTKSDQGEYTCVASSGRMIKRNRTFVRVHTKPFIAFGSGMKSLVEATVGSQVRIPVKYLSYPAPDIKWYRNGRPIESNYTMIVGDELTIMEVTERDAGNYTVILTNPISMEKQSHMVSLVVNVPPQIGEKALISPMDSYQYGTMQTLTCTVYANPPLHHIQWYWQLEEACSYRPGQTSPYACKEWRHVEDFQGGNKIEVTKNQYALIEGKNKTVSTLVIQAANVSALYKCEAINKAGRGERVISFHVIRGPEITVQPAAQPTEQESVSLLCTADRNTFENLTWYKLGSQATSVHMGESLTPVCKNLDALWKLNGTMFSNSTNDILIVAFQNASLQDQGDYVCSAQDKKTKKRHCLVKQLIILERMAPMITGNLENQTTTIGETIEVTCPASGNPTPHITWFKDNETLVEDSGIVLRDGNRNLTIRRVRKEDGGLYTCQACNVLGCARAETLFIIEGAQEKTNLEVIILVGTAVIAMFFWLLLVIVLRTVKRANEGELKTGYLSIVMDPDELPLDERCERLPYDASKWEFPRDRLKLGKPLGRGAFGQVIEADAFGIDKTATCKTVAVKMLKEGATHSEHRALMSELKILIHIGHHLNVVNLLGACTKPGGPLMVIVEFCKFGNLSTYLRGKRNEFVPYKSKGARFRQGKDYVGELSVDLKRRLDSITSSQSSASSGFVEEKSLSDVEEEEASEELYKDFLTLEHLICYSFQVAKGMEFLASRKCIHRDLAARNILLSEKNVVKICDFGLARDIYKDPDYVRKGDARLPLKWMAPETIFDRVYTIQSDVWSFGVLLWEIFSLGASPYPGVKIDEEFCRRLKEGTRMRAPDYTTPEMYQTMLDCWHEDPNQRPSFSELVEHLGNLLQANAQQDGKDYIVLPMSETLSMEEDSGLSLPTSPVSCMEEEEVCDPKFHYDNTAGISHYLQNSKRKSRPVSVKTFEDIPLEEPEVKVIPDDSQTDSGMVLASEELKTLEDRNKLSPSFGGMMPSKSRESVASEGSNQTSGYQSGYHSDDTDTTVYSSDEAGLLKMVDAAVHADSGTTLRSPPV

maximum increase in VEGFR-2 phosphorylation over control (VEGFR-2; DiYF EC): 2.5 fold
maximum increase in VEGFR-2 phosphorylation over control (VEGFR-2; WT EC): 6 fold
increase of fibrinogen binding (αvβ3 integrin [2]): at least 6 fold
increase of fibrinogen binding (αvβ3 integrin [3]): 3 fold
increase in WOW-1 binding (αvβ3 integrin [4]): 9 fold
Substance: VEGF
increase of migration compared to untreated EC ([1]; 5 ng/ml): 1.5 fold
increase of migration compared to untreated EC ([1]; 10 ng/ml): 2.5 fold
increase of migration compared to untreated EC ([1]; 20 ng/ml): 2.9 fold
increase in WOW-1 binding (αvβ3 integrin [5]): 3.5 fold
